The source of these data is PMC4262413, “Importance of Tryptophan in Transforming an Amphipathic Peptide into a Pseudomonas aeruginosa-Targeted Antimicrobial Peptide” (PLoS ONE, 2014).

Experiment in all cases: microbe, parasite or virus in culture
One test relates to S. typhimurium 7731. The format is cell-based, Salmonella typhimurium. Here is the method:
(§1) Minimal inhibitory concentration (MIC) assays were performed as described previously. Briefly, after incubation overnight in Mueller-Hinton (MH) broth at 37°C, the bacteria were grown to exponential growth phase and diluted to approximately 1×10^5 CFU/ml. The peptides were dissolved in 0.2% bovine serum albumin (BSA) containing 0.01% (v/v) acetic acid, and they were then added to each well of a 96-well plates at a final concentration ranging from 0.25 to 128 µM. Each well contained a total volume of 100 µL (50 µL of inoculums and 50 µL of peptide-containing solution). The MICs were determined as the lowest concentration of peptide that prevented visible turbidity by visual inspection after incubation at 37°C for 16–18 h. Independent experiments were carried out at least three times. Uninoculated MH broth was used as a negative control and cultures without added peptides served as the positive control. Minimal bactericidal concentration (MBC) assay was performed following MIC assay. At the end of MIC assay 10 µL aliquots of the medium were taken from peptide-containing wells with no visible bacterial growth. These are plated on MH agar, incubated for 18 h to allow colony growth. The MBC was defined as the lowest peptide concentration resulting in no bacterial growth in the media. Each assay was performed at least three times.

Another test relates to S. epidermidis 12228. It is filed as cell-based, Staphyfococcus epidermidis. Here is the method:
as §1

In another test the test system is P. auruginosa 10419. The format is cell-based, Pseudomonas aeruginosa. Here is the method: as §1
The next test deals with P. aeruginosa 27853. It is filed as cell-based, Pseudomonas aeruginosa. Here is the method: as §1
For a further test, the system named is P. auruginosa 21625. The format is cell-based, Pseudomonas aeruginosa. Here is the method:
as §1

In a further test the test system is P. auruginosa 21630. The format is cell-based, Pseudomonas aeruginosa. Here is the method:
as §1

Another test has as its system P. auruginosa LC. The format is cell-based, Pseudomonas aeruginosa. Here is the method: as §1
The subject of test [1] is P. auruginosa LCCI (ciprofloxacin-resistant strain). Here is the method: as §1
(§2) The antimicrobial activity of the RI16 and mutant peptides against Gram-negative and Gram-positive bacteria were determined.

The subject of test [2] is P. auruginosa LCGE (gentamincin-resistant strain). Here is the method:
as §1, §2

For test [3], the system named is P. auruginosa LCCE (ceftazidime-resistant strain). Here is the method:
as §1, §2

A further test deals with S. aureus 29213. It is filed as cell-based, Staphylococcus aureus. Here is the method:
as §1

In another test the test system is E. coli 25922. It is filed as cell-based, Escherichia coli. Here is the method:
as §1

Values after ≈ are worked out from the molar mass of the structure shown. Where two headings read alike, the source gives them in different places. Residues, ends and D or L forms follow the SMILES beside them.

Take `NCC[C@H](O)C(=O)N[C@@H]1C[C@H](N)[C@@H](O[C@H]2O[C@H](CN)[C@@H](O)[C@H](O)[C@H]2O)[C@H](O)[C@H]1O[C@H]1O[C@H](CO)[C@@H](O)[C@H](N)[C@H]1O` [Amikacin, reference compound]: the MIC against S. typhimurium 7731 (Salmonella enterica, S. typhimurium 7731, MH broth, ~1×10^5 CFU/ml, 37°C, 16–18 h, visible turbidity, at least three independent experiments) was determined as 0.5 µM (≈ 0.293 µg/mL); in the test with S. epidermidis 12228 (Staphylococcus epidermidis, 12228), 0.125 µM (≈ 0.0732 µg/mL); with P. auruginosa 10419 (Pseudomonas aeruginosa, P. auruginosa 10419, MH broth, ~1×10^5 CFU/ml, 37°C, 16–18 h, visible turbidity, at least three independent experiments), 2 µM (≈ 1.17 µg/mL); against P. aeruginosa 27853 (Pseudomonas aeruginosa, P. auruginosa 27853, MH broth, ~1×10^5 CFU/ml, 37°C, 16–18 h, visible turbidity, at least three independent experiments), 1 µM (≈ 0.586 µg/mL); in the test with P. auruginosa 21625 (Pseudomonas aeruginosa, P. auruginosa 21625, MH broth, ~1×10^5 CFU/ml, 37°C, 16–18 h, visible turbidity, at least three independent experiments), 16 µM (≈ 9.37 µg/mL); in the test with P. auruginosa 21630 (Pseudomonas aeruginosa, P. auruginosa 21630, MH broth, ~1×10^5 CFU/ml, 37°C, 16–18 h, visible turbidity, at least three independent experiments), 1 µM (≈ 0.586 µg/mL). The MIC in the test with P. auruginosa LC (Pseudomonas aeruginosa, P. auruginosa LC, MH broth, ~1×10^5 CFU/ml, 37°C, 16–18 h, visible turbidity, at least three independent experiments) was 0.25 µM (≈ 0.146 µg/mL); in test [1] (Pseudomonas aeruginosa) it was 8 µM (≈ 4.68 µg/mL); in [2] (Pseudomonas aeruginosa), above 1280 µM; in [3] (Pseudomonas aeruginosa), 8 µM (≈ 4.68 µg/mL); against S. aureus 29213 (Staphylococcus aureus, S. aureus 29213, MH broth, ~1×10^5 CFU/ml, 37°C, 16–18 h, visible turbidity, at least three independent experiments), 1 µM (≈ 0.586 µg/mL); in the test on E. coli 25922 (Escherichia coli, 25922) it was 0.125 µM (≈ 0.0732 µg/mL).

Regarding `CC[C@H](C)[C@H](NC(=O)[C@H](CCCCN)NC(=O)[C@H](CCCCN)NC(=O)[C@H](CC(C)C)NC(=O)[C@H](CCCNC(=N)N)NC(=O)[C@H](CCCCN)NC(=O)[C@H](CCCNC(=N)N)NC(=O)[C@@H](NC(=O)[C@H](CCCCN)NC(=O)[C@H](CCCCN)NC(=O)[C@H](CCCNC(=N)N)NC(=O)[C@H](CC(C)C)NC(=O)[C@H](CCCNC(=N)N)NC(=O)[C@H](CCCNC(=N)N)NC(=O)[C@H](Cc1ccccc1)NC(=O)[C@@H](N)CCCNC(=N)N)[C@@H](C)O)C(N)=O` [RI16] (H-RFRRLRKKTRKRLKKI-NH2), the MIC with S. typhimurium 7731 (S. typhimurium 7731, MH broth, ~1×10^5 CFU/ml, 37°C, 16–18 h, visible turbidity, at least three independent experiments) came to 128 µM (≈ 279 µg/mL); in the test on S. epidermidis 12228 (S. epidermidis 12228, MH broth, ~1×10^5 CFU/ml, 37°C, 16–18 h, visible turbidity, at least three independent experiments) it was 32 µM (≈ 69.8 µg/mL); against P. auruginosa 10419 (P. auruginosa 10419, MH broth, ~1×10^5 CFU/ml, 37°C, 16–18 h, visible turbidity, at least three independent experiments), 256 µM (≈ 559 µg/mL); against P. aeruginosa 27853 (P. auruginosa 27853, MH broth, ~1×10^5 CFU/ml, 37°C, 16–18 h, visible turbidity, at least three independent experiments), 256 µM (≈ 559 µg/mL); against P. auruginosa 21625 (P. auruginosa 21625, MH broth, ~1×10^5 CFU/ml, 37°C, 16–18 h, visible turbidity, at least three independent experiments), 256 µM (≈ 559 µg/mL); against P. auruginosa 21630 (P. auruginosa 21630, MH broth, ~1×10^5 CFU/ml, 37°C, 16–18 h, visible turbidity, at least three independent experiments), 256 µM (≈ 559 µg/mL). For the same compound, the MIC came out at 32 µM (≈ 69.8 µg/mL) against P. auruginosa LC (P. auruginosa LC, MH broth, ~1×10^5 CFU/ml, 37°C, 16–18 h, visible turbidity, at least three independent experiments); 256 µM (≈ 559 µg/mL) in test [1] (P. auruginosa LCCI, ciprofloxacin-resistant strain, MH broth, ~1×10^5 CFU/ml, 37°C, 16–18 h, visible turbidity); 256 µM (≈ 559 µg/mL) in test [2] (P. auruginosa LCGE, gentamincin-resistant strain, MH broth, ~1×10^5 CFU/ml, 37°C, 16–18 h, visible turbidity); 256 µM (≈ 559 µg/mL) in test [3] (P. auruginosa LCCE, ceftazidime-resistant strain, MH broth, ~1×10^5 CFU/ml, 37°C, 16–18 h, visible turbidity); 128 µM (≈ 279 µg/mL) against S. aureus 29213 (S. aureus 29213, MH broth, ~1×10^5 CFU/ml, 37°C, 16–18 h, visible turbidity, at least three independent experiments); 128 µM (≈ 279 µg/mL) in the test with E. coli 25922 (E. coli 25922, MH broth, ~1×10^5 CFU/ml, 37°C, 16–18 h, visible turbidity, at least three independent experiments).

For `CC[C@H](C)[C@H](NC(=O)[C@H](CCCCN)NC(=O)[C@H](CCCCN)NC(=O)[C@H](CC(C)C)NC(=O)[C@H](CCCNC(=N)N)NC(=O)[C@H](CCCCN)NC(=O)[C@H](CCCNC(=N)N)NC(=O)[C@H](Cc1ccccc1)NC(=O)[C@H](CCCCN)NC(=O)[C@H](CCCCN)NC(=O)[C@H](CCCNC(=N)N)NC(=O)[C@H](CC(C)C)NC(=O)[C@H](CCCNC(=N)N)NC(=O)[C@H](CCCNC(=N)N)NC(=O)[C@H](Cc1ccccc1)NC(=O)[C@@H](N)CCCNC(=N)N)C(N)=O` [T9F] (H-RFRRLRKKFRKRLKKI-NH2), the MIC was 128 µM (≈ 285 µg/mL) in the test with S. typhimurium 7731 (7731); 32 µM (≈ 71.3 µg/mL) against S. epidermidis 12228 (12228); 256 µM (≈ 571 µg/mL) in the test on P. auruginosa 10419; 256 µM (≈ 571 µg/mL) with P. aeruginosa 27853 (27853); 256 µM (≈ 571 µg/mL) with P. auruginosa 21625; 256 µM (≈ 571 µg/mL) in the test with P. auruginosa 21630. The MIC against P. auruginosa LC came to 64 µM (≈ 143 µg/mL); in test [1], 256 µM (≈ 571 µg/mL); in test [2], 256 µM (≈ 571 µg/mL); in test [3] it was 256 µM (≈ 571 µg/mL); in the test with S. aureus 29213 (29213) it was 128 µM (≈ 285 µg/mL); against E. coli 25922 (25922) it was 64 µM (≈ 143 µg/mL).

As to `CC[C@H](C)[C@H](NC(=O)[C@H](CCCCN)NC(=O)[C@H](CCCCN)NC(=O)[C@H](CC(C)C)NC(=O)[C@H](CCCNC(=N)N)NC(=O)[C@H](CCCCN)NC(=O)[C@H](CCCNC(=N)N)NC(=O)[C@@H](NC(=O)[C@H](CCCCN)NC(=O)[C@H](CCCCN)NC(=O)[C@H](CCCNC(=N)N)NC(=O)[C@H](CC(C)C)NC(=O)[C@H](CCCNC(=N)N)NC(=O)[C@H](CCCNC(=N)N)NC(=O)[C@H](Cc1ccccc1)NC(=O)[C@@H](N)CCCNC(=N)N)[C@@H](C)CC)C(N)=O` [T9I] (H-RFRRLRKKIRKRLKKI-NH2), the MIC is given as 256 µM (≈ 562 µg/mL) in the test with S. typhimurium 7731 (7731); 32 µM (≈ 70.2 µg/mL) with S. epidermidis 12228 (12228); 256 µM (≈ 562 µg/mL) with P. auruginosa 10419; 256 µM (≈ 562 µg/mL) against P. aeruginosa 27853 (27853); 256 µM (≈ 562 µg/mL) in the test with P. auruginosa 21625; 256 µM (≈ 562 µg/mL) in the test on P. auruginosa 21630. For the same compound, the MIC is 64 µM (≈ 140 µg/mL) in the test with P. auruginosa LC; 256 µM (≈ 562 µg/mL) in test [1]; 256 µM (≈ 562 µg/mL) in test [2]; 256 µM (≈ 562 µg/mL) in [3]; 256 µM (≈ 562 µg/mL) in the test on S. aureus 29213 (29213); 128 µM (≈ 281 µg/mL) in the test with E. coli 25922 (25922).

Regarding `CC[C@H](C)[C@H](NC(=O)[C@H](CCCCN)NC(=O)[C@H](CCCCN)NC(=O)[C@H](CC(C)C)NC(=O)[C@H](CCCNC(=N)N)NC(=O)[C@H](CCCCN)NC(=O)[C@H](CCCNC(=N)N)NC(=O)[C@H](CCCCN)NC(=O)[C@H](CCCCN)NC(=O)[C@H](CCCCN)NC(=O)[C@H](CCCNC(=N)N)NC(=O)[C@H](CC(C)C)NC(=O)[C@H](CCCNC(=N)N)NC(=O)[C@H](CCCNC(=N)N)NC(=O)[C@H](Cc1ccccc1)NC(=O)[C@@H](N)CCCNC(=N)N)C(N)=O` [T9K] (H-RFRRLRKKKRKRLKKI-NH2), the MIC in the test with S. typhimurium 7731 (7731) stood at 256 µM (≈ 566 µg/mL); against S. epidermidis 12228 (12228), 128 µM (≈ 283 µg/mL); in the test with P. auruginosa 10419, 256 µM (≈ 566 µg/mL); against P. aeruginosa 27853 (27853) it was 128 µM (≈ 283 µg/mL); with P. auruginosa 21625, 256 µM (≈ 566 µg/mL); against P. auruginosa 21630, 256 µM (≈ 566 µg/mL). The MIC in the test on P. auruginosa LC is recorded as 256 µM (≈ 566 µg/mL); against S. aureus 29213 (29213), 128 µM (≈ 283 µg/mL); against E. coli 25922 (25922) it was 128 µM (≈ 283 µg/mL).

`CC(C)(O/N=C(\C(=O)N[C@@H]1C(=O)N2C(C(=O)[O-])=C(C[n+]3ccccc3)CS[C@H]12)c1csc(N)n1)C(=O)O` [ceftazidime, reference compound] showed an MIC in [3] (Pseudomonas aeruginosa) above 512 µM.

In turn, `O=C(O)c1cn(C2CC2)c2cc(N3CCNCC3)c(F)cc2c1=O` [ciprofloxacin, reference compound] showed an MIC in test [1] (Pseudomonas aeruginosa) above 512 µM.
